The record followed here is patent US20100041665A1, “N-PHENYL-PRENYLAMINE DERIVATIVES FOR THE TREATMENT OF COGNITIVE, NEURODEGENERATIVE OR NEURONAL DISEASES OR DISORDERS” (NOSCIRA, S.A., priority 2006, published 2010).

Usually remaining activity stands for the signal under treatment as a percentage of the control signal.

Structures are written as SMILES.

For assay [1], the target named is Recombinant human glycogen synthase kinase 3 beta (Homo sapiens, UniProt P49841). The assay can be described thus: GSK-3 beta inhibition assay. The note with it: percentage of enzyme activity; for remaining activity at 25 µM / remaining activity at 50 µM: 0.5 h. The assay is classed as biochemical. The protocol:
GSK-3 beta Inhibition Assay
The GSK-3 beta activity of the compounds of formula (I) according to the present invention was determined by incubation of a mixture of recombinant human GSK-3 enzyme, a phosphate source and GSK-3 substrate in the presence and in the absence of the corresponding test compound, and by measuring the GSK-3 activity of this mixture. The compounds where tested at final concentrations of 25 and 50 μM.
Recombinant human glycogen synthase kinase 3 beta was assayed in MOPS 11 mM, pH 7.4, EDTA 0.2 mM, EGTA 1.25 mM, MgCl2 26.25 mM and sodium orthovanadate 0.25 mM in the presence of 62.5 μM of Phospho-Glycogen Synthase Peptide-2 (GS-2), 0.5 μCi gamma-^33P-ATP and unlabelled ATP at a final concentration of 12.5 μM. The final assay volume was 20 μl. After incubation for 30 minutes at 30° C., 15 μl aliquots were spotted onto P81 phosphocellulose papers. Filters were washed four times for at least 10 minutes each and counted with 1.5 ml of scintillation cocktail in a scintillation counter.
(§1) The compounds of formula (I) of the present invention where submitted to the above indicated assays, in order to determine both their GSK-3 inhibition activity and BACE activity inhibition. The results are indicated in Table I and Table II, in percentage of the respective enzyme activity.

Assay [2] concerns the target T1, rhBACE-1 β-Secretase recombinant human (Homo sapiens, UniProt P56817).
T1 construct: purchased R&D Systems 931-AS
The assay can be described thus: BACE assay (FRET). The assay is classed as biochemical. The following applies: percentage of enzyme activity.
Description: The aim of this assay is to determine if a compound, either synthetic or of marine origin, is a BACE-1 inhibitor, to avoid the formation of Aβ. This assay is based on FRET technology (Fluorescence Resonance Energy Transfer). FRET is used to measure cleavage of a peptide substrate, among other uses. […] When a substrate peptide cleavage occurs, the energy balance is broken and all the donor fluorescence can be observed. The increase in fluorescence is linearly related to the rate of proteolysis (Gordon, G W et al., 1998). In this assay the reaction occurs between an enzyme, purified BACE-1, and a fluorogenic peptidic substrate who present the “Swedish mutation”. The peptide cleavage by BACE-1 produces fluorescence energy and enzymatic activity can be quantified.
The reagents which are used in this assay are the following: • rhBACE-1 β-Secretase recombinant human (R&D Systems. Ref. 931-AS). • Fluorogenic Peptide Substrate IV (R&D Systems. Ref. ES004). • Beta-SECRETASE INHIBITOR H-4848. (BACHEM. Ref. H-4848.0001). • Sodium acetate.
The assay is carried out in a 96 wells microplate. The final concentration of substrate is 3.5 μM per well, and the enzyme concentration is 0.5 μg/ml. The final volume of the assay is 100 μl per well and all reagents are diluted in Reaction Buffer. The compounds are tested at a concentration of 10^−5 and 10^−6 M. The control in the assay is the commercial inhibitor β-Secretase inhibitor H-4848 from BACHEM, which is tested at 300 nM. All the samples and controls are studied by duplicate.
The plate is mixed gently and changes in the fluorescence are measured using a fluorimeter plate reader, with 320 nm excitation filter and 405 nm emission filter. The temperature should be preferably maintained between 25 and 30° C. Measurements are carried out every ten minutes during an hour. The first measure is subtracted from the last to calculate the fluorescence increase, evaluating the enzymatic activity. The 100% activity is calculated as the mean of the results of wells without sample or inhibitor.
In the cases where abnormal effects in fluorescence were detected, BACE inhibition activity was assayed using BACE-1 (beta-Secretase) FRET ASSAY KIT (Invitrogen, Ref. P2985). Fluorescence was measured with a fluorimeter plate reader, with 544 nm excitation filter and 580 nm emission filter.
as §1

T1 sequence (P56817 46-457 limits assumed): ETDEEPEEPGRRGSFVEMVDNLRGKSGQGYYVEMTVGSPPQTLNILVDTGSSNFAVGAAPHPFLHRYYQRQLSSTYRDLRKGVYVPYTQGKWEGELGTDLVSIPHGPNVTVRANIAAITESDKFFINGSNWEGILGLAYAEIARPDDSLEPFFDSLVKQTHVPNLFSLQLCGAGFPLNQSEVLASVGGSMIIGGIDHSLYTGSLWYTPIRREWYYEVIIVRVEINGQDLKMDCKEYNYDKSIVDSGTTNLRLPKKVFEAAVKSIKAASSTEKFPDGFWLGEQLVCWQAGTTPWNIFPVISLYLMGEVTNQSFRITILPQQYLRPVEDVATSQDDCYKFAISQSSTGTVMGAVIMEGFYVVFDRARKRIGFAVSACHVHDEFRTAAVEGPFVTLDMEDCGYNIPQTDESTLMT
Chain of Recombinant human glycogen synthase kinase 3 beta (P49841 whole entry): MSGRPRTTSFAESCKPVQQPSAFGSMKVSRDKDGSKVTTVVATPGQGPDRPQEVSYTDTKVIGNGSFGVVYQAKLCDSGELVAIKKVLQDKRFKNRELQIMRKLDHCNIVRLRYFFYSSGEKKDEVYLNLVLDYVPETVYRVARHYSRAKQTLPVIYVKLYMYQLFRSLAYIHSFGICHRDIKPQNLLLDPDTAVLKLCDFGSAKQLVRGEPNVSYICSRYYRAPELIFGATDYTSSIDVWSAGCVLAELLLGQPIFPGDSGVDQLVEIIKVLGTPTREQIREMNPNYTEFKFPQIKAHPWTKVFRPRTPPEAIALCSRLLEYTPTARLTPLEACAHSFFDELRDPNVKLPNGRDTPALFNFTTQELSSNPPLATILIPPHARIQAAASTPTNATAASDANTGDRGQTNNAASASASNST

Take `COC(=O)c1ccc(OC)c(N(CC=C(C)CCC=C(C)CCC=C(C)CCC=C(C)C)CC=C(C)CCC=C(C)CCC=C(C)CCC=C(C)C)c1` [Compound 35, 3-[Bis-(3,7,11,15-tetramethyl-hexadeca-2,6,10,14-tetraenyl)-amino]-4-methoxy-benzoic acid methyl ester]: in assay [1] (compound at 25 μM), the remaining activity at 25 µM amounted to 105%. The remaining activity at 50 µM in assay [1] (compound at 50 μM) stood at 97.9%. Besides, the “% of BACE activity” value in assay [2] (compound at 1 μM) turned out to be 91 ± 9%; in assay [2] (compound at 10 μM) it was 41 ± 14%.
On to `COC(=O)c1ccc(OC)c(N(C/C=C(\C)CCC=C(C)C)C/C=C(\C)CCC=C(C)C)c1` [Compound 17], for which the entries for the “% GSK-3 beta activity” value in assay [1] (compound at 25 μM) and in assay [1] (compound at 50 μM) were 73.2% and 42.14%, respectively. For the same compound, the entries for the “% of BACE activity” value in assay [2] (compound at 1 μM) and in assay [2] (compound at 10 μM) were 43 ± 15% and 0%, respectively.
As for `COc1ccc(C(=O)/N=C(\N)NCCO)cc1N(C/C=C(\C)CCC=C(C)C)C/C=C(\C)CCC=C(C)C` [Compound 47], the remaining activity at 25 µM in assay [1] (compound at 25 μM) came out at 34.7%. Moreover, the remaining activity at 50 µM in assay [1] (compound at 50 μM) was 19.1%.
With `COC(=O)c1cccc(NC/C=C(\C)CC/C=C(\C)CCC=C(C)C)c1` [Compound 7], the remaining activity at 50 µM in assay [1] (compound at 50 μM) was found to be 54.7%. Also, the “% of BACE activity” value in assay [2] (compound at 1 μM) and in assay [2] (compound at 10 μM) was 0% throughout.
In the case of `COc1ccc(C(=O)NCCc2c[nH]cn2)cc1N(C/C=C(\C)CCC=C(C)C)C/C=C(\C)CCC=C(C)C` [Compound 46], the remaining activity at 25 µM in assay [1] (compound at 25 μM) stood at 27.9%. Moreover, the remaining activity at 50 µM in assay [1] (compound at 50 μM) came to 19.8%. The “% of BACE activity” value in assay [2] (compound at 1 μM) came out at 122.5 ± 23.3%; in assay [2] (compound at 10 μM) it was 115.5 ± 29%.
Take `COc1ccc(C(=O)N2CCN(CC=Cc3ccccc3)CC2)cc1N(CC=C(C)CCC=C(C)C)CC=C(C)CCC=C(C)C` [Compound 38, {3-[Bis-(3,7-dimethyl-octa-2,6-dienyl)-amino]-4-methoxy-phenyl}-[4-(3-phenyl-allyl)-piperazin-1-yl]-methanone]: in assay [1] (compound at 25 μM), the remaining activity at 25 µM was 23.6%. Also, the remaining activity at 50 µM in assay [1] (compound at 50 μM) turned out to be 2.51%. Besides, the “% of BACE activity” value in assay [2] (compound at 1 μM) is given as 81.5 ± 9%; in assay [2] (compound at 10 μM), 35 ± 10%.
Regarding `COC(=O)c1ccc(OC)c(N(C/C=C(\C)CC/C=C(\C)CCC=C(C)C)C/C=C(\C)CC/C=C(\C)CCC=C(C)C)c1` [Compound 18], the remaining activity at 25 µM in assay [1] (compound at 25 μM) was found to be 56.6%. Further, the remaining activity at 50 µM in assay [1] (compound at 50 μM) was 5.35%. Also, the “% of BACE activity” value in assay [2] (compound at 1 μM) and in assay [2] (compound at 10 μM) was 100% in each case.
Take `CC(C)=CCC/C(C)=C/CC/C(C)=C/CNc1cccc(C(=O)O)c1` [Compound 9]: in assay [1] (compound at 25 μM), the remaining activity at 25 µM was found to be 84.1%. Besides, the remaining activity at 50 µM in assay [1] (compound at 50 μM) was determined as 39.6%. Moreover, the “% of BACE activity” value in assay [2] (compound at 1 μM) was 89.5 ± 9%; in assay [2] (compound at 10 μM) it was 25.5 ± 6%.
`COc1ccc(C(=O)NCCCO)cc1N(C/C=C(\C)CCC=C(C)C)C/C=C(\C)CCC=C(C)C` [Compound 42]: the remaining activity at 25 µM in assay [1] (compound at 25 μM) worked out at 106%. Also, the remaining activity at 50 µM in assay [1] (compound at 50 μM) amounted to 110%.
As to `CC(C)=CCCC(C)=CCNc1cccc(C(=O)O)c1` [Compound 13, 3-(3,7-Dimethyl-octa-2,6-dienylamino)-benzoic acid], the remaining activity at 25 µM in assay [1] (compound at 25 μM) is 55.5%. The remaining activity at 50 µM in assay [1] (compound at 50 μM) is 35.5%. Also, the “% of BACE activity” value in assay [2] (compound at 1 μM) turned out to be 75 ± 5%; in assay [2] (compound at 10 μM), 70 ± 19%.
On the same counts, the results for `COC(=O)c1ccc(O)c(N(C/C=C(\C)CCC=C(C)C)C/C=C(\C)CCC=C(C)C)c1` [Compound 29] are 71.3%, 40.4%, 2.5 ± 3.5% and 0 ± 0%.
Taken in the same sequence, the figures for `COc1ccc(C(=O)NC(=N)n2cccn2)cc1N(C/C=C(\C)CCC=C(C)C)C/C=C(\C)CCC=C(C)C` [Compound 41] were 88.9%, 98.4%, 73 ± 2% and 75 ± 9%.
As to `COc1ccc(C(=O)O)cc1N(CC=C(C)CCC=C(C)CCC=C(C)C)CC=C(C)CCC=C(C)CCC=C(C)C` [Compound 19, 3-[Bis-(3,7,11-trimethyl-dodeca-2,6,10-trienyl)-amino]-4-methoxy-benzoic acid], the remaining activity at 25 µM in assay [1] (compound at 25 μM) came to 30.6%. Besides, in assay [1] (compound at 50 μM), the remaining activity at 50 µM was 15.3%. Further, the “% of BACE activity” value was found to be 60 ± 14% in assay [2] (compound at 1 μM) and 46 ± 28% in assay [2] (compound at 10 μM).
On the same counts, the results for `COC(=O)c1ccc(OC)c(NCC=C(C)CCC=C(C)CCC=C(C)CCC=C(C)C)c1` [Compound 34, 4-Methoxy-3-(3,7,11,15-tetramethyl-hexadeca-2,6,10,14-tetraenylamino)-benzoic acid methyl ester] are 34.7%, 19.1%, 100% and 100%.
On the same counts, the results for `CCCOc1ccc(C(=O)OC)cc1NC/C=C(\C)CC/C=C(\C)CCC=C(C)C` [Compound 43] are 103%, 98.2%, 88.3 ± 3.8% and 27.5 ± 9.2%.
On the same counts, the results for `COC(=O)c1ccc(OC(C)=O)c(N(C/C=C(\C)CCC=C(C)C)C/C=C(\C)CCC=C(C)C)c1` [Compound 31] are 108%, 17.4%, 89.5 ± 18% and 4.5 ± 6%.
On to `COC(=O)c1ccc(OC)c(N(C/C=C(\C)CCC=C(C)C)C/C=C(\C)CCC=C(C)C)c1` [Compound 30], for which the “% GSK-3 beta activity” value in assay [1] (compound at 25 μM) was 17.31%; in assay [1] (compound at 50 μM) it was 0.17%. For the same compound, the entries for the “% of BACE activity” value in assay [2] (compound at 1 μM) and in assay [2] (compound at 10 μM) were 48 ± 6% and 33 ± 7%, respectively.
On to `COC(=O)c1cccc(N(CC=C(C)CCC=C(C)C)CC=C(C)CCC=C(C)C)c1` [Compound 20, 3-[Bis-(3,7-dimethyl-octa-2,6-dienyl)-amino]-benzoic acid methyl ester], for which the remaining activity at 25 µM in assay [1] (compound at 25 μM) amounted to 67.3%. In assay [1] (compound at 50 μM), the remaining activity at 50 µM came to 36.2%. In addition, the “% of BACE activity” value in assay [2] (compound at 1 μM) amounted to 76 ± 25%; in assay [2] (compound at 10 μM), 3 ± 5%.
Taken in the same sequence, the figures for `COc1ccccc1N(C/C=C(\C)CCC=C(C)C)C/C=C(\C)CCC=C(C)C` [Compound 27] were 90.7%, 59.6%, 88.5 ± 0.7% and 51 ± 16%.
On the same counts, the results for `COc1ccc(C(=O)O)cc1NC/C=C(\C)CC/C=C(\C)CCC=C(C)C` [Compound 5] are 70.2%, 52.8%, 50 ± 9% and 0%.
Taken in the same sequence, the figures for `COc1ccccc1NCC=C(C)CCC=C(C)CCC=C(C)C` [Compound 12, (2-Methoxy-phenyl)-(3,7,11-trimethyl-dodeca-2,6,10-trienyl)-amine] were 74.8%, 56.7%, 94 ± 8% and 64.5 ± 9%.
With `COc1ccc(C(=O)/N=C(\N)NCCCO)cc1N(C/C=C(\C)CCC=C(C)C)C/C=C(\C)CCC=C(C)C` [Compound 45], in assay [1] (compound at 25 μM), the remaining activity at 25 µM was found to be 125%. The remaining activity at 50 µM in assay [1] (compound at 50 μM) worked out at 111%.
On the same counts, the results for `CCCOc1ccc(C(=O)OC)cc1N(C/C=C(\C)CC/C=C(\C)CCC=C(C)C)CCC` [Compound 44] are 79.6% and 8.26%.
